Measured values reported in patent US20160296529A1, “AMINOTRIAZOLOPYRIDINE FOR USE IN THE TREATMENT OF INFLAMMATION, AND PHARMACEUTICAL COMPOSITIONS THEREOF” (priority 2012, published 2016).

Legend:
[1] = Single dose pharmacokinetics in animals, mouse; format: in vivo, CD1 mice
Experimental: Pharmacokinetic studies were performed in various animal species dosed with the compound according to Formula II to determine the exposure to the compound according to Formula I as well as its apparent terminal half life (T1/2), when possible.
Sprague-Dawley rats (male, 200-250 g), CD1 mice (male, 25-30 g), Beagle dogs (male, 9-10 kg), Göttingen minipigs (male, 10-15 kg) and New Zealand White rabbits (male, 3-5 kg) were acclimatized for at least 7 days before treatment and were kept on a 12 hr light/dark cycle (07 h00-19 h00).
Temperature was maintained at approximately 22° C., and food and water were provided ad libitum.
The compound according to Formula II was formulated in 0.5% methylcellulose and dosed orally to 3 animals (or 3 mouse/time points) as a single esophageal gavage at dose ranging from 15 to 45 mg/kg under a dosing volume of 5 or 10 mL/kg.
Blood samples were collected over a 24-h period via the jugular vein (dog, minipig), ear blood vessel (rabbit), cardiac puncture (mouse) or retro-orbital sinus (rat) with lithium heparin as anti-coagulant. Whole blood samples were centrifuged and the resulting plasma samples were stored at −20° C. pending analysis.
Plasma concentrations of the compound according to Formula I and of the compound according to Formula II were determined by an LC-MS/MS method with a limit of quantification ≦10.0 ng/mL for both Formula I and Formula II for all species.
Pharmacokinetic parameters were calculated using a statistical analysis package (WinNonLin (Pharsight, Sunnyvale, Calif.: CA 94086, USA).

hepatocytes of mouse = experiment: In vitro metabolism study in hepatocytes, mouse; format: in vitro ADME; details: mouse hepatocyte suspension; 24 h incubation of 100 μM [14C]-Formula II
Experimental: Hepatocyte stability (Concentrations of the compound according to Formula II and its main metabolites (as % of total radioactivity) after 24 h incubation of 100 μM [^14C]-Compound according to Formula II in hepatocyte suspension of different species)

rat CIA model = experiment: CIA model 1 (rat collagen induced arthritis, clinical score); format: in vivo, Dark Agouti rats; set-up: key to Rat CIA Clinical Score: sum of 4 paws, each 0 = no symptoms to 4 = maximal; max 16; details: for Rat CIA Clinical Score: Formula I 60 mg/kg
Experimental: Complete Freund's adjuvant (CFA) and Incomplete Freund's adjuvant (IFA) were purchased from Difco. Bovine collagen type II (CII), lipopolysaccharide (LPS), and Enbrel® was obtained from Chondrex (Isle d'Abeau, France); Sigma (P4252, L'Isle d'Abeau, France), Whyett (25 mg injectable syringe, France), Acros Organics (Palo Alto, Calif.), respectively. All other reagents used were of reagent grade and all solvents were of analytical grade.
Dark Agouti rats (male, 7-8 weeks old) were obtained from Harlan Laboratories (Melderslo, Netherlands). Rats were kept on a 12 hr light/dark cycle (0700-1900). Temperature was maintained at 22° C., and food and water were provided ad libitum.
One day before the experiment, CII solution (2 mg/mL) was prepared with 0.05 M acetic acid and stored at 4° C. Just before the immunization, equal volumes of adjuvant (IFA) and CII were mixed by a homogenizer in a pre-cooled glass bottle in an ice water bath. Extra adjuvant and prolonged homogenization may be required if an emulsion was not formed. 0.2 mL of the emulsion was injected intradermally at the base of the tail of each rat on day 1, a second booster intradermal injection (CII solution at 2 mg/mL in CFA 0.1 mL saline) was performed on day 9. This immunization method was modified from published methods (Sims et al, 2004; Jou et al., 2005).
The therapeutic effects of the compounds were tested in the rat CIA model. Rats were randomly divided into equal groups and each group contained 10 rats. All rats were immunized on day 1 and boosted on day 9. Therapeutic dosing lasts from day 16 to day 30. The negative control group was treated with vehicle (MC 0.5%) and the positive control group with Enbrel® (10 mg/kg, 3× week., s.c.). A compound of interest was typically tested at 3 doses, e.g. 6, 10, 60 mg/kg, q.d., p.o.
Arthritis was scored according to the method of Khachigian 2006, Lin et al 2007 and Nishida et al. 2004). The swelling of each of the four paws was ranked with the arthritic score as follows: 0—no symptoms; 1—mild, but definite redness and swelling of one type of joint such as the ankle or wrist, or apparent redness and swelling limited to individual digits, regardless of the number of affected digits; 2—moderate redness and swelling of two or more types of joints; 3—severe redness and swelling of the entire paw including digits; 4—maximally inflamed limb with involvement of multiple joints (maximum cumulative clinical arthritis score 16 per animal) (Nishida et al., 2004).
To permit the meta-analysis of multiple studies the clinical score values were normalised as follows:
AUC of clinical score (AUC score): The area under the curve (AUC) from day 1 to day 14 was calculated for each individual rat. The AUC of each animal was divided by the average AUC obtained for the vehicle in the study from which the data on that animal was obtained and multiplied by 100 (i.e. the AUC was expressed as a percentage of the average vehicle AUC per study).
Clinical score increase from day 1 to day 14 (End point score): The clinical score difference for each animal was divided by the average clinical score difference obtained for the vehicle in the study from which the data on that animal was obtained and multiplied by 100 (i.e. the difference was expressed as a percentage of the average clinical score difference for the vehicle per study).

[2] = Target inhibition: circulating levels in healthy volunteers as multiples of whole blood assay IC50; format: in vivo, human
Experimental: The compound according to Formula II was dosed daily in healthy volunteers at 200 mg QD and 100 mg BID.
The resulting levels of Formula II and Formula I were then measured and plotted (FIG. 5) as multiples of their respective IC50 as determined by the Whole Blood assay described above in Example 3.4.

With `Nc1nc2cccc(-c3ccc(CN4CCS(=O)(=O)CC4)cc3)n2n1` [Formula I, 5-[4-(1,1-Dioxothiomorpholin-4-ylmethyl)-phenyl]-[1,2,4]triazolo[1,5-a]pyridin-2-ylamine] the “Ratio I/II of exposure (AUC Formula I : AUC Formula II)” value ([1]; after Formula II 30 mg/kg oral) was 1.56, the AUC ([1]; male, CD1, plasma, after Formula II 30 mg/kg oral, read-out: exposure (expressed as AUC)) was 11400 ng·h/mL and the half-life ([1]; male, CD1, plasma, oral, upon administration of Formula II, read-out: apparent terminal elimination half-life (converted)) was 2.1 h. For the same compound, the “In vitro metabolic profile of Formula II (as % of total radioactivity)” value (hepatocytes of mouse) was 14%, the “normalized clinical score values (calculated as AUC or as the difference from day 1 to day 14)” value (rat CIA model; 60 mg/kg) was “statistically significant improvements” and the “Rat CIA Clinical Score” value (rat CIA model; day 18) was 2.9. The “Rat CIA Clinical Score” value (rat CIA model; day 19) was 4.4, the “Rat CIA Clinical Score” value (rat CIA model; day 20) was 5.0 and the “Rat CIA Clinical Score” value (rat CIA model; day 21) was 3.9. The “Rat CIA Clinical Score” value (rat CIA model; day 24) was 4.5, the “Rat CIA Clinical Score” value (rat CIA model; day 25) was 4.3 and the “Rat CIA Clinical Score” value (rat CIA model; day 26) was 3.8. For the same compound, the “Rat CIA Clinical Score” value (rat CIA model; day 27) was 3.7, the “Rat CIA Clinical Score” value (rat CIA model; day 28) was 3.3 and the “activity in the CIA rat model” value (rat CIA model; dosed alone) was “active”. For the same compound, the “Ratio [blood circulating dose]/[circulating dose at IC50 quantity]” value ([2]; Formula II at 100 mg BID, time point 0 h) was 0.97, the “Ratio [blood circulating dose]/[circulating dose at IC50 quantity]” value ([2]; Formula II at 100 mg BID, time point 0.5 h) was 0.93 and the “Ratio [blood circulating dose]/[circulating dose at IC50 quantity]” value ([2]; Formula II at 100 mg BID, time point 1 h) was 0.88. The “Ratio [blood circulating dose]/[circulating dose at IC50 quantity]” value ([2]; Formula II at 100 mg BID, time point 2 h) was 0.97, the “Ratio [blood circulating dose]/[circulating dose at IC50 quantity]” value ([2]; Formula II at 100 mg BID, time point 3 h) was 1.00 and the “Ratio [blood circulating dose]/[circulating dose at IC50 quantity]” value ([2]; Formula II at 100 mg BID, time point 5 h) was 1.13. For the same compound, the “Ratio [blood circulating dose]/[circulating dose at IC50 quantity]” value ([2]; Formula II at 100 mg BID, time point 8 h) was 0.96, the “Ratio [blood circulating dose]/[circulating dose at IC50 quantity]” value ([2]; Formula II at 100 mg BID, time point 12 h) was 0.86 and the “Ratio [blood circulating dose]/[circulating dose at IC50 quantity]” value ([2]; Formula II at 100 mg BID, time point 12.5 h) was 0.93. The “Ratio [blood circulating dose]/[circulating dose at IC50 quantity]” value ([2]; Formula II at 100 mg BID, time point 13 h) was 0.88, the “Ratio [blood circulating dose]/[circulating dose at IC50 quantity]” value ([2]; Formula II at 100 mg BID, time point 14 h) was 0.97 and the “Ratio [blood circulating dose]/[circulating dose at IC50 quantity]” value ([2]; Formula II at 100 mg BID, time point 15 h) was 1.00. For the same compound, the “Ratio [blood circulating dose]/[circulating dose at IC50 quantity]” value ([2]; Formula II at 100 mg BID, time point 17 h) was 1.13, the “Ratio [blood circulating dose]/[circulating dose at IC50 quantity]” value ([2]; Formula II at 100 mg BID, time point 20 h) was 0.96 and the “Ratio [blood circulating dose]/[circulating dose at IC50 quantity]” value ([2]; Formula II at 100 mg BID, time point 24 h) was 0.86. For the same compound, the “Ratio [blood circulating dose]/[circulating dose at IC50 quantity]” value ([2]; Formula II at 200 mg QD, time point 0 h) was 0.69, the “Ratio [blood circulating dose]/[circulating dose at IC50 quantity]” value ([2]; Formula II at 200 mg QD, time point 0.5 h) was 0.65 and the “Ratio [blood circulating dose]/[circulating dose at IC50 quantity]” value ([2]; Formula II at 200 mg QD, time point 1 h) was 0.69. The “Ratio [blood circulating dose]/[circulating dose at IC50 quantity]” value ([2]; Formula II at 200 mg QD, time point 2 h) was 0.84, the “Ratio [blood circulating dose]/[circulating dose at IC50 quantity]” value ([2]; Formula II at 200 mg QD, time point 3 h) was 0.96 and the “Ratio [blood circulating dose]/[circulating dose at IC50 quantity]” value ([2]; Formula II at 200 mg QD, time point 5 h) was 1.00. For the same compound, the “Ratio [blood circulating dose]/[circulating dose at IC50 quantity]” value ([2]; Formula II at 200 mg QD, time point 8 h) was 0.93 and the “Ratio [blood circulating dose]/[circulating dose at IC50 quantity]” value ([2]; Formula II at 200 mg QD, time point 24 h) was 0.84.
